Measured values taken from patent US11786534B2 (TAIHO PHARMACEUTICAL CO., LTD., priority 2019, dated 2023).
pIC50: −log10 of the molar value. Like-named read-outs stand apart in the source and are kept apart here.

Legend:
[1] = molecular target: T1, human EGFR (d746-750/C797S) (Homo sapiens, UniProt P00533, C797S/DEL746-750); assay: Inhibitory activity against EGFR (d746-750/C797S) kinase; format: biochemical; conditions: Test Example 1, Table 4; ATP 14 μM, 60 minutes
T1 construct: purchased SignalChem
T1 sequence (P00533 with tags, fused parts or gaps DEL746-750/C797S): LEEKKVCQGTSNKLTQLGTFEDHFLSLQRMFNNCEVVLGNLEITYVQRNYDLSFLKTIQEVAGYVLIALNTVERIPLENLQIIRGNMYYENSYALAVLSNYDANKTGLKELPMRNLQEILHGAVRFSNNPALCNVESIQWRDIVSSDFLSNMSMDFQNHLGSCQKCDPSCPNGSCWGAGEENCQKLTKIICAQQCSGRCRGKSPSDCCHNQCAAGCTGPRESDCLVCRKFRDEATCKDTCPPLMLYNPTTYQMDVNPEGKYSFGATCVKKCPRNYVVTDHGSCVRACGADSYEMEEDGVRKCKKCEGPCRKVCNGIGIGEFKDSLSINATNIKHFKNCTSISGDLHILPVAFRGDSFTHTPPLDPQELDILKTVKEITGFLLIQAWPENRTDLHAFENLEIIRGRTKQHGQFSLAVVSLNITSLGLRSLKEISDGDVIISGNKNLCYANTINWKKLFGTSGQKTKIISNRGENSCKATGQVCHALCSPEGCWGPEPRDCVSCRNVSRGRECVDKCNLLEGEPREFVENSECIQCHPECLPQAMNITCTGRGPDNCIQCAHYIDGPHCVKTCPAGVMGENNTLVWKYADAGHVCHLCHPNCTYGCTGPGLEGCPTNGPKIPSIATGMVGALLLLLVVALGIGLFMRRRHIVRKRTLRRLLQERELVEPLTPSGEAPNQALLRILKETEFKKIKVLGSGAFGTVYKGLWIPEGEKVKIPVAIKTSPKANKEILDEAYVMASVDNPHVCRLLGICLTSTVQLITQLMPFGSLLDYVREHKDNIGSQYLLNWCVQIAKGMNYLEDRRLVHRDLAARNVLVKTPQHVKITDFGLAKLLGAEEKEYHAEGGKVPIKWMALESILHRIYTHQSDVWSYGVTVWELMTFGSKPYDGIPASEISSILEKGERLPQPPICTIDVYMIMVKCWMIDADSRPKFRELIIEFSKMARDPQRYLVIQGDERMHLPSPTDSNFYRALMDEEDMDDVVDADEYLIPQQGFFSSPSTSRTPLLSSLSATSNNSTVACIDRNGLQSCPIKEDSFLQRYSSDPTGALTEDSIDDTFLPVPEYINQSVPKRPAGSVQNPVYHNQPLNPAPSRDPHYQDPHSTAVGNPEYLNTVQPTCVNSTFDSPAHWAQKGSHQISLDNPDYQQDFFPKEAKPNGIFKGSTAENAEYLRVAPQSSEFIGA
Method in brief: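 Recombinant human EGFR d746-750/C797S in 13.5 mM Tris pH 7.5 with 2 mM DTT and 0.009% Tween-20. Reaction ran 60 min with 14 μM ATP, 20 mM MgCl2 and 12.5 mM MnCl2, stopped by 40 mM EDTA. IC50 in nM.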

[2] = molecular target: Ba/F3-EGFR (L858R/T790M/C797S) (Homo sapiens, UniProt P00533, T790M/C797S/L858R, cells depend on it); assay: Growth inhibition of cell line expressing EGFR (L858R/T790M/C797S); format: cell-based, mouse; conditions: read-out: BaF3_EGFR (L858R/T790M/C797S) IC50 value
Sequence of Ba/F3-EGFR (L858R/T790M/C797S) (P00533 whole entry T790M/C797S/L858R): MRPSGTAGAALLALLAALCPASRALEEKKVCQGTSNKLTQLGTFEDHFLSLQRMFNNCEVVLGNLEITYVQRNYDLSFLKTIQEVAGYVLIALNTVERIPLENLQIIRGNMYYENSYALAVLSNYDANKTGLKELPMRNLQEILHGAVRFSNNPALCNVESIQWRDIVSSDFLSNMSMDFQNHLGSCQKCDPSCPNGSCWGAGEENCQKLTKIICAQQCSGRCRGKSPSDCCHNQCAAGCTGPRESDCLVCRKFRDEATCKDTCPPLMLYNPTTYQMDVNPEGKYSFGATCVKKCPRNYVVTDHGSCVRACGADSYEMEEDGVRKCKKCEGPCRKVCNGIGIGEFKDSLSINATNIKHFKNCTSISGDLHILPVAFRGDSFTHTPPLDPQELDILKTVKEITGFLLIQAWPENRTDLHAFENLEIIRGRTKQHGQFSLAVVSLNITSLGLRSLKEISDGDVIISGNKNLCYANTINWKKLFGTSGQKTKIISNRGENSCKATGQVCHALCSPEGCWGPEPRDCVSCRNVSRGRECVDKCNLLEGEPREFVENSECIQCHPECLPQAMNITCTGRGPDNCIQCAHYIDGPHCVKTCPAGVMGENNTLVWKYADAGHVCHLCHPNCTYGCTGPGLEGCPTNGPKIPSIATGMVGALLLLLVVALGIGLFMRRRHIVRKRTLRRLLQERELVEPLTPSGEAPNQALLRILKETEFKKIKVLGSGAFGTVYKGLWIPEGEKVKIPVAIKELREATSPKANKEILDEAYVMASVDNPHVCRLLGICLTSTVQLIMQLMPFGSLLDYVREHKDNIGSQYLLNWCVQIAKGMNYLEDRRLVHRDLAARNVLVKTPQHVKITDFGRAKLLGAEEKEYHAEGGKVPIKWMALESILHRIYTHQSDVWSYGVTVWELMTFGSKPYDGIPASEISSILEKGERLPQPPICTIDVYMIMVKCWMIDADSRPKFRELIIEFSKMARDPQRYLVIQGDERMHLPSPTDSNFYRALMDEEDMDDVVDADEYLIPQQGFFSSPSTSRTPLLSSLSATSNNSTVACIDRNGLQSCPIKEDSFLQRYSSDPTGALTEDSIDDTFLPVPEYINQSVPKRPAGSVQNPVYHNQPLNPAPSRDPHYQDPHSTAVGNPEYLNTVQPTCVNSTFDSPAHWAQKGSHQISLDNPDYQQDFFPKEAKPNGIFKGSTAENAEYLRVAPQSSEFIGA
Excerpt: (§1) Test for inhibitory activity against the growth of cell lines expressing wild-type and mutated EGFRs (in vitro)
(§2) (1) Mouse cell line Ba/F3-EGFR (d746-750/T790M/C797S) transfected with and stably expressing EGFR (d746-750/T790M/C797S), mouse cell Ba/F3-EGFR (L858R/T790M/C797S) transfected with and stably expressing EGFR (L858R/T790M/C797S), and mouse cell line Ba/F3-EGFR (WT) transfected with and stably expressing wild-type EGFR were each suspended in RPMI-1640 cell culture medium (RPMI-1640, 10% FBS, 100 unit/ml penicillin, 0.1 mg/ml streptomycin). In the case of the mouse cell line Ba/F3-EGFR (WT), RPMI-1640 cell culture medium containing EGF at a final concentration of 50 ng/ml was used to suspend this cell line. It should be noted that the mouse cell line Ba/F3-EGFR (d746-750/T790M/C797S) transfected with and stably expressing EGFR (d746-750/T790M/C797S), the mouse cell line Ba/F3-EGFR (L858R/T790M/C797S) transfected with and stably expressing EGFR (L858R/T790M/C797S) and the mouse cell line Ba/F3-EGFR (WT) transfected with and stably expressing wild-type EGFR were prepared by using nucleotide sequences encoding the proteins of SEQ ID NOs: 1 and 2 in accordance with Test Example 1 in WO2018/079310, These cell suspensions were seeded in wells of 96-well flat -bottomed plates. The compounds of the present invention were dissolved in DMSO, and serial dilutions of these test compounds were prepared with DMSO (1000-fold of the final concentration). Each test compound solution in DMSO or DMSO alone was diluted with RPMI-1640 cell culture medium for each cell line, and this dilution was added to wells of the cell culture plate such that the final concentration of DMSO was 0.1%, followed by culture at 37° C. for 3 days in a 5% carbon dioxide gas-containing incubator. Before and after addition of each test compound solution in DMSO, the number of cells was counted using the CellTiter-Glo® system (Promega) on the basis of the protocol recommended by Promega.
(§3) In each cell line, the rate of cell growth inhibition was calculated according to the equation shown below in wells to which each test compound was added at different concentrations. Moreover, the inhibition rate at each concentration was plotted for each test compound, and the concentration of each test compound required to give 50% cell survival rate, i.e., IC50 (nM) was determined by curve fitting software XLfit (IDBS).
(§4) Cell survival rate (%)=T/C×100
(§5) T: emission intensity in a well cultured for 3 days after addition of a test compound solution
(§6) C: emission intensity in a well cultured for 3 days after addition of DMSO
(§7) In accordance with the same procedures as shown in Test Example 2, the compounds of the present invention were tested for their inhibitory activity against the growth of the cell hoes expressing wild-type and mutated EGFRs.

[3] = molecular target: Ba/F3-EGFR (WT) (Homo sapiens, UniProt P00533); assay: Growth inhibition of cell line expressing wild-type EGFR; format: cell-based, mouse; conditions: read-out: BaF3_EGFR (WT) IC50 value
Sequence of Ba/F3-EGFR (WT) (P00533 whole entry, change not shown): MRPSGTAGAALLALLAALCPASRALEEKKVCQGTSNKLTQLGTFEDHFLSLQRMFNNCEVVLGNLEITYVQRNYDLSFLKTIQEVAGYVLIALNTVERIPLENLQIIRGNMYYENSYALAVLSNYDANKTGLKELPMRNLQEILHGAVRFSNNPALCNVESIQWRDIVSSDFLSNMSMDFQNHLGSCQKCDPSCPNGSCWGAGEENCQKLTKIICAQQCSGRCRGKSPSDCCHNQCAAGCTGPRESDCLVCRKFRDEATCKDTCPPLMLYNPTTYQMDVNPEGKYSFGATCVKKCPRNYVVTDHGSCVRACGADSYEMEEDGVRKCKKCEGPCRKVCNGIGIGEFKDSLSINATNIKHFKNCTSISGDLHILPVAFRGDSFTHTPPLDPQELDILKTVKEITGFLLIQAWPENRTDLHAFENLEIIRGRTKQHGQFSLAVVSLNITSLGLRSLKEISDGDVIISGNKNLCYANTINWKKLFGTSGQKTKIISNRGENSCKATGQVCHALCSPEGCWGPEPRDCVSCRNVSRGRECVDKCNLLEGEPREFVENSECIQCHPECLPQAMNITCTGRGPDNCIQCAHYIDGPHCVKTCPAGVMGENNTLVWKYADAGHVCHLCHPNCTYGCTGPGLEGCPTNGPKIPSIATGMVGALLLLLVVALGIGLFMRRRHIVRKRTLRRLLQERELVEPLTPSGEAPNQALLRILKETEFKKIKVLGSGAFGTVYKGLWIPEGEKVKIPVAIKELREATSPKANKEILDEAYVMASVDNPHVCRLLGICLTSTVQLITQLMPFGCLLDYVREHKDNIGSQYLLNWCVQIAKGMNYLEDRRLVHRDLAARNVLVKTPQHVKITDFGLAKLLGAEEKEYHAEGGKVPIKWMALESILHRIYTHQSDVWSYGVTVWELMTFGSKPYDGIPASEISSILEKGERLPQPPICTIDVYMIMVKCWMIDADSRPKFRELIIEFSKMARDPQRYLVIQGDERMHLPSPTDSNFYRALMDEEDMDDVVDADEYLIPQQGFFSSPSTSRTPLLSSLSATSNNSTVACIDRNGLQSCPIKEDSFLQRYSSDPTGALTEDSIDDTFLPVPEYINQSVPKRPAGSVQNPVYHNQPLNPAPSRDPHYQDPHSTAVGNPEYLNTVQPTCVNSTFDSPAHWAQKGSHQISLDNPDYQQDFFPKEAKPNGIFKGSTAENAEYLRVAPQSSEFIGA
Excerpt: as §1, §2, §3, §4, §5, §6, §7

[4] = molecular target: T2, human EGFR (L858R/T790M/C797S) (Homo sapiens, UniProt P00533, C797S/L858R/T790M); assay: Inhibitory activity against EGFR (L858R/T790M/C797S) kinase; format: biochemical; conditions: Test Example 1, Table 3; ATP 0.5 μM
T2 construct: made in house; host or cells: Sf9 insect cells, baculovirus
T2 sequence (P00533 with tags, fused parts or gaps T790M/C797S/L858R): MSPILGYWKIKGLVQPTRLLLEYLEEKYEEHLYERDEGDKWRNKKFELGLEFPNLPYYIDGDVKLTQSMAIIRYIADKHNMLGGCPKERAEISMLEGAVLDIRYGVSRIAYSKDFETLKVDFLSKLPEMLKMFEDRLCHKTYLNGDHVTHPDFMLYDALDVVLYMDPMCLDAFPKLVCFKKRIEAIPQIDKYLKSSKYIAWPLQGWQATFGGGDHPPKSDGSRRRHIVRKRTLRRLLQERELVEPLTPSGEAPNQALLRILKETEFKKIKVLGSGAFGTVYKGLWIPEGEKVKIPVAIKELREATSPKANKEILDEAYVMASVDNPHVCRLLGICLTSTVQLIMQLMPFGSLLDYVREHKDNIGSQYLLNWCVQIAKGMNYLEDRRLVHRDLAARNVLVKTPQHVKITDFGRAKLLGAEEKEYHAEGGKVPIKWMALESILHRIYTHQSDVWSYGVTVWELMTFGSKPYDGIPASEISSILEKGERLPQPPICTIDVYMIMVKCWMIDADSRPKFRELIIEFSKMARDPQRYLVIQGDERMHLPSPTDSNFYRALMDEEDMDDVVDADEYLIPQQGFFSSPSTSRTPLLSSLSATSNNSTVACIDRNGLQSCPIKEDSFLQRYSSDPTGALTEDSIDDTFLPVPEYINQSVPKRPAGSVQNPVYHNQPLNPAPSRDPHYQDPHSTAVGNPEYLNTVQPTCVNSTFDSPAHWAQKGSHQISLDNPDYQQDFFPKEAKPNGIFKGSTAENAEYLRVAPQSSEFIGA
Method in brief: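 GST-tagged cytoplasmic domain of human EGFR L858R/T790M/C797S, expressed in Sf9 insect cells via baculovirus and glutathione-purified. Kinase reaction run at 0.5 μM ATP final; IC50 (nM) determined per compound.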

[5] = Test Example 4, Table 13, same procedures as Test Example 2
[6] = Test Example 2, Table 7, culture 3 days, CellTiter-Glo
[7] = Test Example 2, Table 7, culture 3 days, EGF 50 ng/ml, CellTiter-Glo

Compound | pIC50 [1] | GI50 [2, 5] [nM] | GI50 [3, 5] [nM] | pIC50 [4] | GI50 [2, 6] [nM] | GI50 [3, 7] [nM]
C#Cc1c(-c2cnc3ccccc3c2)c2c(N)ncnc2n1[C@@H]1CCN(C(=O)C=C)C1 [Comparative Example B, (R)-1-(3-(4-Amino-6-ethynyl-5-(quinolin-3-yl)-7H-pyrrolo[2,3-d]pyrimidin-7-yl) -pyrrolidin-1-yl)-prop-2-en-1-one, reference compound] | 7.03 | – | – | 7.37 | 3590 | 1050
C#Cc1c(-c2cnc3ccccc3c2)c2c(N)ncnc2n1C12CCC(NC(=O)c3ccnn3C)(CC1)C2 [Example 24, N-(4-(4-Amino-6-ethynyl-5-(quinolin-3-yl)-7H-pyrrolo[2,3-d]pyrimidin-7-yl)bicyclo-[2.2.1]heptan-1-yl)-1-methyl-1H-pyrazole-5-carboxamide] | 9.30 | – | – | > 9.52 | 403 | 3790
C#Cc1c(-c2cnc3ccccc3c2)c2c(N)ncnc2n1C12CCC(NC(=O)c3ccccc3)(CC1)C2 [Example 1, N-(4-(4-Amino-6-ethynyl-5-(quinolin-3-yl)-7H-pyrrolo[2,3-d]pyrimidin-7-yl)bicyclo-[2.2.1]heptan-1-yl)benzamide] | 8.74 | 887 | 3490 | 9.34 | – | –

More lines, in order of rising pIC50 [1], values ahead:

pIC50 [1] | GI50 [2, 5] [nM] | GI50 [3, 5] [nM] | pIC50 [4] | GI50 [2, 6] [nM] | GI50 [3, 7] [nM] | Compound
9.14 | 268 | 2260 | 9.49 | – | – | C#Cc1c(-c2cnc3ccccc3c2)c2c(N)ncnc2n1C12CCC(NC(=O)c3ccno3)(CC1)C2 [Example 44]
9.17 | 245 | 2650 | 9.36 | – | – | C#Cc1c(-c2cnc3ccccc3c2)c2c(N)ncnc2n1C12CCC(NC(=O)c3ccnn3C3CC3)(CC1)C2 [Example 20, N-(4-(4-Amino-6-ethynyl-5-(quinolin-3-yl)-7H-pyrrolo[2,3-d]pyrimidin-7-yl)bicyclo-[2.2.1]heptan-1-yl)-1-cyclopropyl-1H-pyrazole-5-carboxamide]
9.21 | 448 | > 2000 | 9.25 | – | – | C#Cc1c(-c2cnc3ccccc3c2)c2c(N)ncnc2n1C12CCC(NC(=O)c3noc(C)n3)(CC1)C2 [Example 36, N-(4-(4-Amino-6-ethynyl-5-(quinolin-3-yl)-7H-pyrrolo[2,3-d]pyrimidin-7-yl)-bicyclo-[2.2.1]heptan-1-yl)-5-methyl-1,2,4-oxadiazole-3-carboxamide]
9.31 | – | – | 9.33 | 290 | 3070 | C#Cc1c(-c2cnc3ccccc3c2)c2c(N)ncnc2n1C12CCC(NC(=O)c3cccnn3)(CC1)C2 [Example 49]
